Data as given in patent publication US20240368158A1, “KINASE MODULATORS, COMPOSITIONS COMPRISING THE KINASE MODULATOR, AND METHODS OF USING THE SAME” (BIOFRONT LTD, priority 2021, published 2024).

How the values were obtained:
[1] = target: T1, HPK1 (Homo sapiens, UniProt Q92918); test: HPK1 enzyme inhibition assay (ADP-Glo); type: biochemical; conditions: MBP substrate, ATP
T1 construct: purchased Signal Chem M23-11G-10
T1 sequence (Q92918 1-346 limits assumed): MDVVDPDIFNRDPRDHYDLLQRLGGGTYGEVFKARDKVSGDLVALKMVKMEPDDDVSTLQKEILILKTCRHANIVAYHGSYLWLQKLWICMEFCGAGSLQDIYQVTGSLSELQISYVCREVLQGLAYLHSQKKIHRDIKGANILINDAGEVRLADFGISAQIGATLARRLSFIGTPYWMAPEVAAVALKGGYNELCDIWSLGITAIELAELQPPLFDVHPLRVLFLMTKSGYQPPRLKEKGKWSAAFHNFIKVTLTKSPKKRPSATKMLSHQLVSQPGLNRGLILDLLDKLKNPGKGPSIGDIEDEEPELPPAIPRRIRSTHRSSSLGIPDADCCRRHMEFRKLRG
Experimental: The compound was dissolved in 100% DMSO at the concentration of 10 mM. The HPK1 protein was purchased from Signal Chem (M23-11G-10). 2.5 μL per well of 2×HPK1 protein was added to assay plate containing the test compound, centrifuged at 1500 rpm for 1 minute, and then incubated at 25° C. for 60 minutes. MBP protein was purchased from Signal Chem (M42-51N) and ATP was purchased from Promega (V9102). The two were added 2.5 μL per well mixture of 2×MBP (0.2 ug/ul) and ATP (20 μM), centrifuged at 1500 rpm for 1 minute, then incubated at 25° C. for 60 minutes. Then added 5 μL of ADP-Glo from Promega (V9102) to the assay plate and depleted the unconsumed ATP for 60 minutes. Then centrifuged at 1500 rpm for 1 minute and incubated at 25° C. for 60 minutes. Finally, 10 μL of the kinase assay reagent from Promega (V9102) was added to the assay plate to convert ADP to ATP, centrifuged at 1500 rpm for 1 minute, incubate at 25° C. for 40 minutes. After 40 minutes incubation, the […] was determined. Based on the results, the IC50 value of the compound was calculated.

[2] = system: HPK1 p-SLP-76 in Jurkat cells; test: HPK1 p-SLP-76 inhibition assay in Jurkat cells (HTRF); type: cell-based; conditions: Homo sapiens, 4 h compound, anti-CD3 stimulation 20 min
Experimental: Before compound treatment, Jurkat cells were starved in PRMI-1640 medium supplemented with 0.5% FBS overnight. The cell density was adjusted to 1*10^7 cells/mL in assay medium (RPMI-1640 no phenol red with 0.5% FBS) and 16 uL cell suspension was transferred per well to a 384-well plate (Corning #3765). […] of test compound was prepared in assay medium and 4 uL was added per well to the 384-well plate. The plate was then incubated at 37° C., 5% CO2 for 4 h. Jurkat cells in 384-well plate were stimulated with anti-CD3 (BD Biosciences #555329, final conc. is 10 ug/mL) for 20 min at 37° C., 5% CO2 by adding 4 uL 6× antibody solution per well. Phospho-SLP76 HTRF kit was purchased from Cisbio (63ADK076PEH). 8 uL 4× Lysis Buffer was added to 384-well plate after anti-CD3 stimulation. The plate was centrifuged at 1,000 rpm for 1 min, shaken at 250 rpm for 60 min and centrifuged again at 1,000 rpm for 5 min. Afterwards the cell lysates were transferred to the assay plate (Greiner #784075) with 16 uL per well. 4 uL detection antibody mix per well prepared in Detection Buffer was added to the assay plate, followed by centrifugation at 1,000 rpm for 1 min and incubation at 25° C. overnight. The fluorescence emission at two different wavelengths (665 nm and 620 nm) was read by an HTRF compatible microplate reader and the IC50 value of the compound was calculated.

Row | SMILES | IC50 [1] [µM] | IC50 [2] [µM]
1 | COC(=O)c1c[nH]c2ncc(-c3cccc(N4CCNCC4=O)c3)c(Cl)c12 [Example 2, Methyl 4-chloro-5-(3-(2-oxopiperazin-1-yl)phenyl)-1H-pyrrolo[2,3-b]pyridine-3-carboxylate] | 0.1 to 1 | > 10
2 | CC(C)(C)C#Cc1c[nH]c2ncc(-c3cccc(N4CCNCC4=O)c3)c(Cl)c12 [Example 3, 1-(3-(4-chloro-3-(3,3-dimethylbut-1-yn-1-yl)-1H-pyrrolo[2,3-b]pyridin-5-yl)phenyl) piperazin-2-one] | 0.1 to 1 | 0.3 to 3
3 | O=C1CNCCN1c1cccc(-c2cnc3[nH]cc(C#Cc4cccnc4)c3c2Cl)c1 [Example 6, 1-(3-(4-chloro-3-(pyridin-3-ylethynyl)-1H-pyrrolo[2,3-b]pyridin-5-yl)phenyl)piperazin-2-one] | 0.01 to 0.1 | 0.3 to 3
4 | CN(C)CC#Cc1c[nH]c2ncc(-c3cccc(N4CCNCC4=O)c3)c(Cl)c12 [Example 8, 1-(3-(4-chloro-3-(3-(dimethylamino)prop-1-yn-1-yl)-1H-pyrrolo[2,3-b]pyridin-5-yl)phenyl)piperazin-2-one] | > 1 | > 10
5 | CCc1c[nH]c2ncc(-c3csc(N4CCNCC4=O)n3)c(Cl)c12 [Example 10, 1-(4-(4-chloro-3-ethyl-1H-pyrrolo[2,3-b]pyridin-5-yl)thiazol-2-yl)piperazin-2-one] | 0.01 to 0.1 | 0.3 to 3
6 | O=C1CNCCN1c1nc(-c2cnc3[nH]cc(C4CC4)c3c2Cl)cs1 [Example 11, 1-(4-(4-chloro-3-cyclopropyl-1H-pyrrolo[2,3-b]pyridin-5-yl)thiazol-2-yl)piperazin-2-one] | 0.01 to 0.1 | 3 to 10
7 | O=C1CNCCN1c1cccc(-c2cnc3[nH]cc(CC(F)F)c3c2Cl)c1 [Example 12, 1-(3-(4-chloro-3-(2,2-difluoroethyl)-1H-pyrrolo[2,3-b]pyridin-5-yl)phenyl)piperazin-2-one] | ≤ 0.01 | 0.3 to 3
8 | Cc1ccc(C#Cc2c[nH]c3ncc(-c4cccc(N5CCNCC5=O)c4)c(Cl)c23)cn1 [Example 13, 1-(3-(4-chloro-3-((6-methylpyridin-3-yl)ethynyl)-1H-pyrrolo[2,3-b]pyridin-5-yl)phenyl)piperazin-2-one] | 0.01 to 0.1 | 3 to 10
9 | Cn1cnc(C#Cc2c[nH]c3ncc(-c4cccc(N5CCNCC5=O)c4)c(Cl)c23)n1 [Example 14, 1-(3-(4-chloro-3-((1-methyl-1H-1,2,4-triazol-3-yl)ethynyl)-1H-pyrrolo[2,3-b]pyridin-5-yl)phenyl)piperazin-2-one] | 0.01 to 0.1 | > 10

Results, then the compound that gave them:

Row | IC50 [1] [µM] | IC50 [2] [µM] | SMILES
10 | ≤ 0.01 | 0.3 to 3 | CCc1c[nH]c2ncc(-c3cccc(N4CCCC(CO)C4=O)c3)c(Cl)c12 (racemic) [Example 22, 1-(3-(4-chloro-3-ethyl-1H-pyrrolo[2,3-b]pyridin-5-yl)phenyl)-3-(hydroxymethyl)piperidin-2-one]
11 | ≤ 0.01 | 0.3 to 3 | CCc1c[nH]c2ncc(-c3cccc(N4CCNCC4=O)c3)c(Cl)c12 [Example 1, 1-(3-(4-chloro-3-ethyl-1H-pyrrolo[2,3-b]pyridin-5-yl)phenyl)piperazin-2-one]
12 | ≤ 0.01 | 0.3 to 3 | O=C1CNCCN1c1cccc(-c2cnc3[nH]cc(C4CC4)c3c2Cl)c1 [Example 4, 1-(3-(4-chloro-3-cyclopropyl-1H-pyrrolo[2,3-b]pyridin-5-yl)phenyl) piperazin-2-one]
13 | ≤ 0.01 | > 10 | O=C1CNCCN1c1cccc(-c2cnc3[nH]cc(C#CC4CC4)c3c2Cl)c1 [Example 5, 1-(3-(4-chloro-3-(cyclopropylethynyl)-1H-pyrrolo[2,3-b]pyridin-5-yl)phenyl) piperazin-2-one]
14 | ≤ 0.01 | 0.3 to 3 | CCc1c[nH]c2ncc(-c3cccc(N4CCNCC4=O)n3)c(Cl)c12 [Example 9, 1-(6-(4-chloro-3-ethyl-1H-pyrrolo[2,3-b]pyridin-5-yl)pyridin-2-yl)piperazin-2-one]
